Here are results for 2 compounds from US11919869B2, “CD73 compounds” (Gilead Sciences, Inc., priority 2021, dated 2024).

Counter-ions that a name gives are not always drawn. Like-named read-outs stand apart in the source and are kept apart here. Where only a bound is given, the exact number is not on record here.

Data set [1] is described as follows: In vivo rat pharmacokinetics. To be noted: Wister Han rats. The method, then: In Vivo Rat Pharmacokinetics Experiments
In vivo Wister Han rat pharmacokinetic experiments of compound Comparator C and Example 4 were assessed as follows.
Compound Comparator C was dosed as a 100 mg/kg suspension to Wister Han rats (N=3) using the following formulation:30% captisol, 5% soluplus, 65% pH 2 water. Compound 1170997 was dosed separately as a 100 mg-eq/kg (123 mg/kg) solution to Wister Han rats (N=3) using the following formulation: 0.5% Methocel E4M Premium, 0.1% Tween-80, 99.4% Water. Samples were assessed for the presence of Comparator C.
Comparator C and Example 4. […] As is shown in Table 4, the AUC 0-24 h measured for Comparator C in plasma was higher after dosing with Example 4 than the value measured after dosing with an equivalent dose of Comparator C.

The nature of data set [2]: Thermodynamic solubility in FaSSIF and FeSSIF. Format: physicochemical. As to conditions: 20 hours, ambient temperature. As for the experimental part:
Thermodynamic Solubility in FASSIF and FESSIF.
The aqueous solubility of compounds over a time of 20 hours was assessed. Solubility was determined at ambient temperature in buffered fasted-state simulated intestinal fluid (FaSSIF, pH 6.5) and buffered fed-state simulated intestinal fluid (FeSSIF, pH 5.0) prepared in-house using BioRelevant Simulated Intestinal Fluid (SIF) powder. Solids were added to FaSSIF or FeSSIF in 1.5-mL Eppendorf tubes, vortexed for 1 minute, then agitated for 20 hours in an Eppendorf ThermoMixer C. To determine concentration in solution, the suspensions were centrifuged for 10 min at 14,800 rpm and supernatants were diluted to a volume of 1 mL with 1:1 v/v acetonitrile:water. All diluted supernatants were analyzed by UPLC using a Waters Acquity UPLC with a PDA UV detector.

The nature of data set [3]: Kinetic solubility at pH 1 and 7. Format: physicochemical. As to conditions: 23 °C, kinetic from dmso stock, 1.0% DMSO. The method, then: Kinetic Solubility at pH 1 and 7
100-fold dilutions of each compound as DMSO stock solution were prepared by combining 3 μL of DMSO stock with 297 μL of the appropriate media in a Millipore solubility filter plate with 0.45 μM polycarbonate filter membrane using Hamilton Starlet liquid handling. The final DMSO Concentration is 1.0% and maximum theoretical compound concentration is […] (assuming stock concentration of 10 mM). The filter plate was sealed. Following 24-hour incubation at ambient temperature (22.2-23.6° C.), the samples were vacuum filtered, and the filtrates were collected in a 96 well polypropylene plate for analysis. The collection plate was sealed for analysis. Filtrates were injected into the nitrogen detector for quantification. The equimolar nitrogen response of the detector is calibrated using standards which span the dynamic range of the instrument from 0.08 to 4500 μg/ml nitrogen. The filtrates were quantified with respect to this calibration curve. The calculated solubility values are corrected for background nitrogen present in the DMSO, and the media used to prepare the samples

Data set [4] deals with T1, alkaline phosphatase (intestinal) (Bos taurus, UniProt P19111).
T1 construct: purchased MilliPore Sigma
As to the kind of experiment: Alkaline phosphatase stability assay. The format is in vitro ADME. To be noted: 2 μM substrate, 100 ng/mL purified Bovine intestinal alkaline phosphatase, Tris buffer pH 7.8; read-out: ALP half life. As for the experimental part: Alkaline Phosphatase Stability Assay
(§1) Alkaline phosphatase stability assays were carried out using purified Bovine intestinal alkaline phosphatase. Duplicate sets were performed with a TECAN liquid handler. Assay substrate concentrations were 2 μM. Purified Bovine intestinal alkaline phosphatase was acquired through MilliPore Sigma as a lyophilized powder. Reaction mixtures were prepared by the addition of 2 μL compound (400 μM stock solution in DMSO) into wells of a 96-well plate containing […] Tris buffer (100 mM, pH 7.8, 1 mM MgCl2 and 1 mM ZnCl2) with and without 100 ng/mL purified Bovine intestinal alkaline phosphatase. Samples were assessed at time points of 3, 30, 60, 120, 180 and 240 minutes. At each time point, 25 μL of the reaction mixtures were added into a 96-well plate containing 225 μL of quench solution (99% Acetonitrile with 1% Formic Acid and 100 nM Labetalol as internal standard). The plates containing the quench samples were then vortexed at 1100 RPM for 10 minutes and centrifuged at 4500 RPM for 20 minutes. 150 μL of the resulting supernatant was transferred into a 96-well plate containing 150 μL of water and vortexed at 1100 RPM for 3 minutes to mix.
(§2) Samples were analyzed with a Leap HTC Autosampler and a Dionex UltiMate 3000 HPLC system interfaced to a Thermo Q-Exactive mass spectrometer operating in positive ion electrospray mode. A Thermo Scientific Hypersil GOLD (1.9 μM particle size, 50×2.1 mm) HPLC column was used and mobile phase was pumped at 0.5 mL/min. Elution of analytes was achieved by a series of linear gradients of acetonitrile in water containing 0.1% (v/v) formic acid. Quantification was by analyte/internal standard peak area ratio (PAR).

A short description of data set [5]: Assay buffer stability (Tris buffer without alkaline phosphatase). To be noted: 2 μM substrate, Tris buffer pH 7.8 without alkaline phosphatase. Format: physicochemical. As for the experimental part:
as §1, §2

T1 sequence (P19111 20-506 limits assumed): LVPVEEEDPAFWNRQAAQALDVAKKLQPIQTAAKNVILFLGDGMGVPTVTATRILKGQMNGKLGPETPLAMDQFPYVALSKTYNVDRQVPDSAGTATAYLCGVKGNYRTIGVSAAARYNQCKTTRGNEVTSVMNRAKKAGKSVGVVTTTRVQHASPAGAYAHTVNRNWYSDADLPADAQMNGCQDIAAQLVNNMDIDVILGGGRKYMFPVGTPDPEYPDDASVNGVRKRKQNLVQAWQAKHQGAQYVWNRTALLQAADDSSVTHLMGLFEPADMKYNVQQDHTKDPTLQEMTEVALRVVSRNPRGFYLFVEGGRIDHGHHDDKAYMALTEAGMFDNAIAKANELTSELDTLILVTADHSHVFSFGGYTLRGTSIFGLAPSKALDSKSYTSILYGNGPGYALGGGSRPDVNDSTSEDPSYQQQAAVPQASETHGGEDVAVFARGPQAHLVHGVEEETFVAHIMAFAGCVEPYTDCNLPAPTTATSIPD

On to `O=c1[nH]cc(-c2cc([C@H]3C[C@@H]3c3ccc4cnn(CC(F)(F)F)c4c3)c3ncc(F)n3n2)c(=O)[nH]1` [Comparator C HCl salt, reference compound], for which, in data set [1] (rat, 100 mg/kg suspension, Comparator C measured in plasma, read-out: Comparator C AUC 0-24 h), the AUC(0-t) came out at 11.2 µM·h.

The solubility (kinetic) is the concentration staying in solution when a stock, usually in DMSO, is diluted into the medium. The term half-life denotes the time needed for the level to fall by half in the phase considered. In the case of `O=c1[nH]c(=O)n(COP(=O)(O)O)cc1-c1cc([C@H]2C[C@@H]2c2ccc3cnn(CC(F)(F)F)c3c2)c2ncc(F)n2n1` [Example 4, (5-(3-fluoro-8-((1S,2S)-2-(1-(2,2,2-trifluoroethyl)-1H-indazol-6-yl)cyclopropyl)imidazo[1,2-b]pyridazin-6-yl)-2,4-dioxo-3,4-dihydropyrimidin-1(2H)-yl)methyl dihydrogen phosphate], the “FaSSIF (pH 6.5)” value in data set [2] (fasted-state simulated intestinal fluid pH 6.5) is 1100 ug/mL. Moreover, in data set [2] (fed-state simulated intestinal fluid pH 5.0), the “FeSSIF (pH 5.0)” value is given as above 5400 ug/mL. Also, the solubility (kinetic) at 24 h was above 100 µM in data set [3] (aqueous buffer, pH 7, 24-hour incubation at ambient temperature, read-out: Kinetic Solubility pH 7) and 96 µM in data set [3] (simulated gastric fluid, pH 1, 24-hour incubation at ambient temperature, read-out: Kinetic Solubility pH 1). Further, the half-life at 2 µM is 4 min in data set [4] and above 1580 min in data set [5]. Also, the “AUC 0-24 h measured for Comparator C in plasma, compared with dosing an equivalent dose of Comparator C” value in data set [1] (100 mg-eq/kg) is reported as “higher”.
